Laboratory results from patent publication US6844328B2, “Polysaccharidic esters of N-derivatives of glutamic acid” (Eurand Pharmaceuticals Ltd., priority 2000, dated 2005).

System: dihydrofolate reductase (DHFR)
Details: MT 2.2×10^−5 M; 30° C.; absorbance at 340 nm
Experimental: Reagents and test samples were added to 3 ml disposable cuvettes to the required volume of distilled water in the following order: H2O (0.1-0 ml), 1.5 M Na-acetate buffer (1 ml), 1.8 M KCl (1 ml), 3 mM NADPH (0.15 ml), test solution in PBS (0-0.1 ml), dihydrofolate reductase (DHFR) (ca. 0.01 Uμl) (5 μl). All reagents were purchased from Sigma. The DHFR was introduced, mixed and incubated at 30° C. for 2 min. The reaction was initiated by the addition of dihydrofolic acid (3 mM, 0.15 ml), and the decrease in absorbance with the time at 340 nm was followed.
A control reaction, which contained 0.1 ml of PBS as test solution was included.

CN(Cc1cnc2nc(N)nc(N)c2n1)c1ccc(C(=O)N[C@@H](CCC(=O)O)C(=O)O)cc1 [MT]
inhibition of DHFR activity: completely inhibited
